# Measurements: patent EP4282435A1, “FORMULATIONS OF ACTIVE PHARMACEUTICAL INGREDIENTS AND EXCIPIENTS IN ICELLS VIA HYDROPHOBIC ION PAIRING” (Danmarks Tekniske Universitet, priority 2022, dated 2023)
# Where a name gives a salt, the structure may show the parent alone. Read-outs that look alike come from different tables or passages of the source.
# Experiments:
# [1] = Experimental: After removing the supernatant, the complex was dissolved in methanol, transferred to a new glass vial and the solvent was dried under a gentle nitrogen flow. […] ICell was proportionally added to a vial containing Abaloparatide in its native form to achieve a final Abaloparatide concentration of 1 mg/g. Abaloparatide-HIP complexes were pre-dissolved in DMSO (corresponding to 5% weight of the final formulation), followed by the proportional addition of ICell to obtain a final Abaloparatide concentration of 1 mg/g.
# S. aureus strain S54F9 = experiment: Microbiological assay, Disc Diffusion Assay; format: cell-based, Staphylococcus aureus; details: Example 24, wells: 0.5 mg linoleic acid in DMSO; 0.5 mg vancomycin hydrochloride; 45 µl HIP complex + 45 µl PBS; 24 hours at 37 °C
# Experimental: Then, 3 wells were carved out with the use of the broad side of an autoclaved 1 ml pipette tip.
# This setup was repeated for three experimental replicates. Each plate was incubated for 24 hours at 37 °C, before inspection.
# Then, 3 wells were carved out with the use of the broad side of an autoclaved 1 ml pipette tip. In one well, 0.5 mg linoleic acid was injected as 90 µl 0.22 µm-sterile-filtered dimethyl sulfoxide. In a second well, 90 µl autoclaved phosphate-buffered saline with 0.5 mg vancomycin hydrochloride was injected. […] The plate was incubated for 24 hours at 37 °C, before inspection.
# [2] = SuBen:GTH:DMSO (60:15:25) ICell, visual
solubility in ICell [1],SMILES,antimicrobial activity (clearance of S. aureus) (S. aureus strain S54F9),solubility in ICell [2]
insoluble,CC[C@H](C)[C@H](NC(=O)[C@H](CO)NC(=O)[C@H](CCCCN)NC(=O)CNC(=O)[C@H](CCCCN)NC(=O)[C@H](CC(=O)O)NC(=O)[C@H](Cc1cnc[nH]1)NC(=O)[C@H](CC(C)C)NC(=O)[C@H](CC(C)C)NC(=O)[C@H](CCC(N)=O)NC(=O)[C@H](Cc1cnc[nH]1)NC(=O)[C@H](CCC(=O)O)NC(=O)[C@H](CO)NC(=O)[C@@H](NC(=O)[C@H](C)N)C(C)C)C(=O)N[C@@H](CCC(N)=O)C(=O)N[C@@H](CC(=O)O)C(=O)N[C@@H](CC(C)C)C(=O)N[C@@H](CCCNC(=N)N)C(=O)N[C@@H](CCCNC(=N)N)C(=O)N[C@@H](CCCNC(=N)N)C(=O)N[C@@H](CCC(=O)O)C(=O)N[C@@H](CC(C)C)C(=O)N[C@@H](CC(C)C)C(=O)N[C@@H](CCC(=O)O)C(=O)N[C@@H](CCCCN)C(=O)N[C@@H](CC(C)C)C(=O)N[C@@H](CC(C)C)C(=O)NC(C)(C)C(=O)N[C@@H](CCCCN)C(=O)N[C@@H](CC(C)C)C(=O)N[C@@H](Cc1cnc[nH]1)C(=O)N[C@H](C(=O)N[C@@H](C)C(N)=O)[C@@H](C)O [Abaloparatide],–,–
–,CN[C@H](CC(C)C)C(=O)N[C@H]1C(=O)N[C@@H](CC(N)=O)C(=O)N[C@H]2C(=O)N[C@H]3C(=O)N[C@H](C(=O)N[C@H](C(=O)O)c4cc(O)cc(O)c4-c4cc3ccc4O)[C@H](O)c3ccc(c(Cl)c3)Oc3cc2cc(c3O[C@@H]2O[C@H](CO)[C@@H](O)[C@H](O)[C@H]2O[C@H]2C[C@](C)(N)[C@H](O)[C@H](C)O2)Oc2ccc(cc2Cl)[C@H]1O [Vancomycin hydrochloride],clearance of S. aureus bacteria,not dissolvable
